Measurements from ChEMBL document CHEMBL5154660, “Straightforward access to novel mitochondriotropics derived from 2-arylethanol as potent and selective antiproliferative agents” (Eur J Med Chem, 2022).
The source made the active and inactive calls. The rule behind the calls is not given here.

Legend:
A549 = experiment: Antiproliferative activity against human A549 cells assessed as reduction in cell growth; format: functional
HBL-100 = experiment: Antiproliferative activity against human HBL-100 cells assessed as reduction in cell growth; format: functional
HeLa = experiment: Antiproliferative activity against human HeLa cells assessed as reduction in cell growth; format: functional
SW1573 = experiment: Antiproliferative activity against human SW1573 cells assessed as reduction in cell growth; format: functional
T47D = experiment: Antiproliferative activity against human T47D cells assessed as reduction in cell growth; format: functional
WiDr = experiment: Antiproliferative activity against human WiDr cells assessed as reduction in cell growth; format: functional
[1] = Antiproliferative activity against human hTERT-BJ cells assessed as reduction in cell growth; format: toxicity, cell-based
NCI-H460 [2] = experiment: Antiproliferative activity against human NCI-H460 cells assessed as reduction in cell growth measured after 48 hrs by sulforhodamine B assay; format: functional
NCI-H460 [3] = experiment: Antiproliferative activity against human multi-drug resistant NCI-H460/R cells overexpressing P-glycoprotein assessed as reduction in cell growth measured after 48 hrs by sulforhodamine B assay; format: functional
[4] = Antiproliferative activity against human MRC5 cells assessed as reduction in cell growth measured after 48 hrs by sulforhodamine B assay; format: toxicity, cell-based
[5] = Resistant index, ratio of GI50 for human multi-drug resistant NCI-H460/R cells to GI50 for human NCI-H460 cells; format: functional
NCI-H460 [6] = experiment: Induction of apoptosis in human NCI-H460 cells assessed as increase in necrotic cells at 600 nM incubated for 48 hrs by annexin-V-FITC and PI staining based flow cytometry analysis (reference value: 2 %); format: functional
NCI-H460 [7] = experiment: Antiproliferative activity against human multi-drug resistant NCI-H460/R cells overexpressing P-glycoprotein assessed as cell growth inhibition in presence of tariquidar measured after 48 hrs by sulforhodamine B assay; format: functional; conditions: dose 0.01-100 µM
NCI-H460 [8] = experiment: Cell cycle arrest in human NCI-H460 cells assessed as decrease in accumulation at G1 phase at 600 nM measured after 48 hrs by propidium iodide staining based flow cytometry analysis; format: functional
NCI-H460 [9] = experiment: Cell cycle arrest in human NCI-H460 cells assessed as increase in accumulation at S phase at 600 nM measured after 48 hrs by propidium iodide staining based flow cytometry analysis; format: functional
NCI-H460 [10] = experiment: Cell cycle arrest in human NCI-H460 cells assessed as increase in accumulation at G2/M phase at 600 nM measured after 48 hrs by propidium iodide staining based flow cytometry analysis; format: functional
NCI-H460 [11] = experiment: Cell cycle arrest in human NCI-H460 cells assessed as increase in accumulation at subG1 phase at 600 nM measured after 48 hrs by propidium iodide staining based flow cytometry analysis; format: functional
NCI-H460 [12] = experiment: Induction of mitochondrial membrane potential loss in human NCI-H460 cells assessed as depolarization of mitochondrial membrane at 600 nM incubated for 24 hrs by JC-1 staining based flow cytometry assay; format: functional, cell-based
NCI-H460 [13] = experiment: Induction of mitochondrial membrane potential loss in human NCI-H460 cells assessed as depolarization of mitochondrial membrane at 600 nM incubated for 48 hrs by JC-1 staining based flow cytometry assay; format: functional, cell-based

## c1ccc(COc2ccc(CCOCCCCCC[P+](c3ccccc3)(c3ccccc3)c3ccccc3)cc2OCc2ccccc2)cc1
A549
  GI50: 0.25 µM
HBL-100
  GI50: 0.47 µM
HeLa
  GI50: 0.32 µM
SW1573
  GI50: 0.35 µM
T47D
  GI50: 0.81 µM
WiDr
  GI50: 1 µM
[1]
  GI50: 3.3 µM

## c1ccc(CCOCCCCCCCCCCCC[P+](c2ccccc2)(c2ccccc2)c2ccccc2)cc1
A549
  GI50: 0.17 µM
HBL-100
  GI50: 0.29 µM
HeLa
  GI50: 0.33 µM
SW1573
  GI50: 0.25 µM
T47D
  GI50: 0.27 µM
WiDr
  GI50: 0.26 µM
[1]
  GI50: 4.4 µM

## COc1ccc(CCOCCCCCC[P+](c2ccccc2)(c2ccccc2)c2ccccc2)cc1OC
A549
  GI50: 0.74 µM
HBL-100
  GI50: 0.55 µM
HeLa
  GI50: 0.42 µM
SW1573
  GI50: 0.49 µM
T47D
  GI50: 0.46 µM
WiDr
  GI50: 0.38 µM
[1]
  GI50: 34 µM

## c1ccc(COc2ccc(CCOCCCCCCCCCCCC[P+](c3ccccc3)(c3ccccc3)c3ccccc3)cc2)cc1
A549
  GI50: 0.45 µM
HBL-100
  GI50: 0.37 µM
HeLa
  GI50: 0.6 µM
SW1573
  GI50: 0.42 µM
T47D
  GI50: 0.57 µM
WiDr
  GI50: 0.77 µM
[1]
  GI50: 3.3 µM

## COc1ccc(CCOCCCCCCCCCCCC[P+](c2ccccc2)(c2ccccc2)c2ccccc2)cc1OC
A549
  GI50: 0.026 µM
HBL-100
  GI50: 0.26 µM
HeLa
  GI50: 0.21 µM
SW1573
  GI50: 0.17 µM
T47D
  GI50: 0.21 µM
WiDr
  GI50: 0.22 µM
[1]
  GI50: 4.3 µM

## O=c1[nH]cc(F)c(=O)[nH]1 [FLUOROURACIL]
A549
  GI50: 2.2 µM
HBL-100
  GI50: 4.4 µM
HeLa
  GI50: 16 µM
SW1573
  GI50: 3.3 µM
T47D
  GI50: 43 µM
WiDr
  GI50: 49 µM
[1]
  GI50: 5.5 µM

## c1ccc(COc2ccc(CCOCCCCCCCCCCCC[P+](c3ccccc3)(c3ccccc3)c3ccccc3)cc2OCc2ccccc2)cc1
A549
  GI50: 0.17 µM
HBL-100
  GI50: 0.24 µM
HeLa
  GI50: 0.33 µM
SW1573
  GI50: 0.32 µM
T47D
  GI50: 0.5 µM
WiDr
  GI50: 0.45 µM
[1]
  GI50: 3.5 µM

## COc1ccc(CCOCCCCCC[P+](c2ccccc2)(c2ccccc2)c2ccccc2)cc1
A549
  GI50: 0.26 µM
HBL-100
  GI50: 0.37 µM
HeLa
  GI50: 0.27 µM
SW1573
  GI50: 0.22 µM
T47D
  GI50: 0.2 µM
WiDr
  GI50: 0.23 µM
[1]
  GI50: 30 µM

## c1ccc(CCOCCCCC[P+](c2ccccc2)(c2ccccc2)c2ccccc2)cc1
A549
  GI50: 0.37 µM
HBL-100
  GI50: 0.44 µM
HeLa
  GI50: 0.31 µM
SW1573
  GI50: 0.33 µM
T47D
  GI50: 0.22 µM
WiDr
  GI50: 0.22 µM
[1]
  GI50: 32 µM

## c1ccc(COc2ccc(CCOCCCCCC[P+](c3ccccc3)(c3ccccc3)c3ccccc3)cc2)cc1
A549
  GI50: 0.12 µM
HBL-100
  GI50: 0.25 µM
HeLa
  GI50: 0.18 µM
SW1573
  GI50: 0.12 µM
T47D
  GI50: 0.2 µM
WiDr
  GI50: 0.24 µM
[1]
  GI50: 3.1 µM

## [Br-].c1ccc([P+](CCCCCCOCCc2ccc3c(c2)OCO3)(c2ccccc2)c2ccccc2)cc1
A549
  GI50: 0.87 µM
HBL-100
  GI50: 0.58 µM
HeLa
  GI50: 0.35 µM
SW1573
  GI50: 0.35 µM
T47D
  GI50: 0.27 µM
WiDr
  GI50: 0.24 µM
[1]
  GI50: 43 µM
NCI-H460 [2]
  GI50: 0.6 µM
NCI-H460 [3]
  GI50: 3.6 µM
[4]
  GI50 at 48 h: 62.7 µM
[5]
  RatioGI50: 6
NCI-H460 [6]
  Activity: 27%
NCI-H460 [7]
  GI50: 0.59 µM
NCI-H460 [8]
  Activity: Active
NCI-H460 [9]
  Activity: Active
NCI-H460 [10]
  Activity: Active
NCI-H460 [11]
  Activity: Active
NCI-H460 [12]
  Activity: Active
NCI-H460 [13]
  Activity: Active

## COc1ccc(CCOCCCCC[P+](c2ccccc2)(c2ccccc2)c2ccccc2)cc1OC
A549
  GI50: 3.4 µM
HBL-100
  GI50: 4.2 µM
HeLa
  GI50: 2.3 µM
SW1573
  GI50: 2.1 µM
T47D
  GI50: 2 µM
WiDr
  GI50: 1.5 µM
[1]
  GI50: 57 µM

## c1ccc([P+](CCCCCCCCCCCCOCCc2ccc3c(c2)OCO3)(c2ccccc2)c2ccccc2)cc1
A549
  GI50: 0.059 µM
HBL-100
  GI50: 0.21 µM
HeLa
  GI50: 0.22 µM
SW1573
  GI50: 0.17 µM
T47D
  GI50: 0.18 µM
WiDr
  GI50: 0.19 µM
[1]
  GI50: 4.6 µM

## c1ccc([P+](CCCCCOCCc2ccc3c(c2)OCO3)(c2ccccc2)c2ccccc2)cc1
A549
  GI50: 1.4 µM
HBL-100
  GI50: 0.68 µM
HeLa
  GI50: 0.54 µM
SW1573
  GI50: 0.64 µM
T47D
  GI50: 0.36 µM
WiDr
  GI50: 0.33 µM
[1]
  GI50: 37 µM

## COc1ccc(CCOCCCCC[P+](c2ccccc2)(c2ccccc2)c2ccccc2)cc1
A549
  GI50: 0.4 µM
HBL-100
  GI50: 0.52 µM
HeLa
  GI50: 0.39 µM
SW1573
  GI50: 0.37 µM
T47D
  GI50: 0.31 µM
WiDr
  GI50: 0.33 µM
[1]
  GI50: 28 µM

## COc1ccc(CCOCCCCCCCCCCCC[P+](c2ccccc2)(c2ccccc2)c2ccccc2)cc1
A549
  GI50: 0.18 µM
HBL-100
  GI50: 0.34 µM
HeLa
  GI50: 0.32 µM
SW1573
  GI50: 0.25 µM
T47D
  GI50: 0.29 µM
WiDr
  GI50: 0.32 µM
[1]
  GI50: 3.6 µM

## c1ccc(COc2ccc(CCOCCCCC[P+](c3ccccc3)(c3ccccc3)c3ccccc3)cc2OCc2ccccc2)cc1
A549
  GI50: 0.13 µM
HBL-100
  GI50: 0.2 µM
HeLa
  GI50: 0.27 µM
SW1573
  GI50: 0.23 µM
T47D
  GI50: 0.31 µM
WiDr
  GI50: 0.31 µM
[1]
  GI50: 3.5 µM

## c1ccc(COc2ccc(CCOCCCCC[P+](c3ccccc3)(c3ccccc3)c3ccccc3)cc2)cc1
A549
  GI50: 0.088 µM
HBL-100
  GI50: 0.084 µM
HeLa
  GI50: 0.077 µM
SW1573
  GI50: 0.089 µM
T47D
  GI50: 0.19 µM
WiDr
  GI50: 0.18 µM
[1]
  GI50: 2.9 µM

## [Br-].c1ccc(CCOCCCCCC[P+](c2ccccc2)(c2ccccc2)c2ccccc2)cc1
A549
  GI50: 0.13 µM
HBL-100
  GI50: 0.26 µM
HeLa
  GI50: 0.17 µM
SW1573
  GI50: 0.16 µM
T47D
  GI50: 0.14 µM
WiDr
  GI50: 0.14 µM
[1]
  GI50: 35 µM
NCI-H460 [2]
  GI50: 0.57 µM
NCI-H460 [3]
  GI50: 4.6 µM
[4]
  GI50 at 48 h: 15.3 µM
[5]
  RatioGI50: 8.1
NCI-H460 [6]
  Activity: 37%
NCI-H460 [7]
  GI50: 0.61 µM
NCI-H460 [8]
  Activity: Active
NCI-H460 [9]
  Activity: Active
NCI-H460 [10]
  Activity: Active
NCI-H460 [11]
  Activity: Active
NCI-H460 [12]
  Activity: Active
NCI-H460 [13]
  Activity: Active
